US20070117743A1, “New antitumoral compounds” (priority 2003, published 2007)

Columns and labels:
Type in all cases: cell-based, human
A-549 = assay: SRB colorimetric assay of cell growth and viability, A-549; conditions: A-549, 48 hours exposure
SK-MEL-28 = assay: SRB colorimetric assay of cell growth and viability, SK-MEL-28; conditions: 48 hours exposure, SRB
HT-29 = assay: SRB colorimetric assay of cell growth and viability, HT-29; conditions: HT-29, 48 hours exposure
LoVo = assay: SRB colorimetric assay of cell growth and viability, LoVo; conditions: LOVO, 48 hours exposure
LoVo-Dox = assay: SRB colorimetric assay of cell growth and viability, LoVo-Dox; conditions: LOVO-DOX, 48 hours exposure
Outline: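 First, 5×10^3 cells per well attach for 18 hours in RPMI 1640 with 10% FBS at 37° C and 5% CO2. Next, samples spanning 10 to 10^−8 μg/mL are added for 48 hours. Finally, cells are fixed with TCA, stained with SRB for 10 minutes and read at 490 nm.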

DU-145 = assay: SRB colorimetric assay of cell growth and viability, DU-145; conditions: 48 hours exposure, SRB
LNCaP = assay: SRB colorimetric assay of cell growth and viability, LNCaP; conditions: 48 hours exposure, SRB
Excerpt: The finality of this assay is to interrupt the growth of a “in vitro” tumor cell culture by means a continued exhibition of the cells to the sample to be testing.
This form of the assay employs 96 well cell culture microplates of 9 mm diameter (Faircloth, 1988; Mosmann, 1983). Most of the cell lines are obtained from American Type Culture Collection (ATCC) derived from different human cancer types.
Cells are maintained in RPMI 1640 10% FBS, supplemented with 0.1 g/l penicillin and 0.1 g/l streptomycin sulfate and then incubated at 37° C., 5% CO2 and 98% humidity. For the experiments, cells were harvested from subconfluent cultures using trypsin and resuspended in fresh medium before plating.
Cells are seeded in 96 well microtiter plates, at 5×10^3 cells per well in aliquots of 195 μL medium, and they are allowed to attach to the plate surface by growing in drug free medium for 18 hours. Afterward, samples are added in aliquots of 5 μL in a ranging from 10 to 10^−8 μg/mL, dissolved in DMSO:EtOH:PBS (0.5:0.5:99). After 48 hours exposure, the antitumor effect are measured by the SRB methodology: cells are fixed by adding 50 μL of cold 50% (wt/vol) trichloroacetic acid (TCA) and incubating for 60 minutes at 4° C. Plates are washed with deionized water and dried. One hundred μL of SRB solution (0.4% wt/vol in 1% acetic acid) is added to each microtiter well and incubated for 10 minutes at room temperature. Unbound SRB is removed by washing with 1% acetic acid. Plates are air dried and bound stain is solubilized with Tris buffer. Optical densities are read on a automated spectrophotometric plate reader at a single wavelength of 490 nm.
The values for mean+/− SD of data from triplicate wells are calculated. Some parameters for cellular responses can be calculated: GI=growth inhibition, TGI=total growth inhibition (cytostatic effect) and LC=cell killing (cytotoxic effect).

IGROV-1 = assay: SRB colorimetric assay of cell growth and viability, IGROV-1; conditions: 48 hours exposure, SRB
IGROV-ET = assay: SRB colorimetric assay of cell growth and viability, IGROV-ET; conditions: 48 hours exposure, SRB
HeLa = assay: SRB colorimetric assay of cell growth and viability, HeLa; conditions: HELA, 48 hours exposure
HeLa-APL = assay: SRB colorimetric assay of cell growth and viability, HeLa-APL; conditions: HELA-APL, 48 hours exposure
K-562 = assay: SRB colorimetric assay of cell growth and viability, K-562; conditions: K-562, 48 hours exposure
PANC-1 = assay: SRB colorimetric assay of cell growth and viability, PANC-1; conditions: PANC-1, 48 hours exposure

## C/C=C1\NC(=O)[C@H](Cc2ccccc2)NC(=O)[C@@H](C(C)C)NC(=O)[C@@H]([C@@H](C)CC)NC(=O)[C@H](NC(=O)[C@H](NC(=O)[C@H](CCCN)NC(=O)[C@H]2CCCCN2C(=O)[C@H](NC(=O)[C@@H](NC(=O)[C@@H](NC(=O)[C@H](NC(=O)CC[C@@H](C)CC)C(C)C)[C@@H](C)O)C(C)C)C(C)C)[C@@H](C)CC)[C@@H](C)OC(=O)[C@H](C(C)C)NC1=O [Compound 60, [D-Pip^9, (4S)-MeHex^14]-KF]
A-549
  TGI A-549: 3.66E−06 Molar
A-549; read-out: GI50 A-549
  GI50: 1.61 µM
A-549; read-out: LC50 A-549
  CC50: 6.7 µM
SK-MEL-28
  GI50: 1.66 µM
  TGI MEL-28: 3.07E−06 Molar
SK-MEL-28; read-out: LC50 MEL-28
  CC50: 5.68 µM
HT-29
  TGI HT-29: 2.16E−06 Molar
HT-29; read-out: GI50 HT-29
  GI50: 1.04 µM
HT-29; read-out: LC50 HT-29
  CC50: 4.47 µM
LoVo
  GI50: 1.03 µM
  TGI LOVO: 2.44E−06 Molar
LoVo; read-out: LC50 LOVO
  CC50: 5.77 µM
LoVo-Dox
  GI50: 0.624 µM
  TGI LOVO-DOX: 1.98E−06 Molar
LoVo-Dox; read-out: LC50 LOVO-DOX
  CC50: 6.14 µM
DU-145
  GI50: 1.64 µM
  LC50 (concentration causing 50% net cell kill): 6.16 µM
  TGI DU-145: 3.17E−06 Molar
LNCaP
  TGI LN-caP: 2.59E−06 Molar
LNCaP; read-out: GI50 LN-caP
  GI50: 1.23 µM
LNCaP; read-out: LC50 LN-caP
  CC50: 5.43 µM
IGROV-1
  GI50: 1.24 µM
  LC50 (concentration causing 50% net cell killing): 6.28 µM
  TGI IGROV: 2.79E−06 Molar
IGROV-ET
  GI50: 1.21 µM
  TGI IGROV-ET: 2.68E−06 Molar
IGROV-ET; read-out: LC50 IGROV-ET
  CC50: 5.95 µM
HeLa
  GI50: 3.15 µM
  TGI HELA: 6.70E−06 Molar
HeLa; read-out: LC50 HELA
  CC50: 6.7 µM
HeLa-APL
  GI50: 2.05 µM
  TGI HELA-APL: 4.42E−06 Molar
HeLa-APL; read-out: LC50 HELA-APL
  CC50: 6.7 µM
K-562
  GI50: 5.3 µM
  TGI K-562: 6.70E−06 Molar
K-562; read-out: LC50 K-562
  CC50: 6.7 µM
PANC-1
  GI50: 6.7 µM
  TGI PANC-1: 6.70E−06 Molar
PANC-1; read-out: LC50 PANC-1
  CC50: 6.7 µM
